Laboratory results from patent publication US20150316548A1, “PROGRANULIN AS MARKER FOR AUTOIMMUNE DISORDERS” (UNIVERSITAET DES SAARLANDES, priority 2012, published 2015).
“Also recorded” adds a separate entry of the source.

Tested on: hyperphosphorylation of progranulin at Ser81 in lymphoblastoid cell lines (LCL)
Test: Kinase inhibitors added to cultured lymphoblastoid cell lines (LCL), progranulin isoforms read by IEF and immunoblot
Assay type: cell-based, human
Conditions: for hyperphosphorylated progranulin isoform in IEF: LCL culture
Method: Lymphoblastoid cell lines (LCLs) were established by infection of PBMCs with EBV as described before.
Isoelectric focusing was performed as described before. In short, whole blood cell extracts or extracts of LCLs were washed and treated with lysis buffer (8 M urea, 0.1 M NaH2PO4, 0.01 M Tris HCl, 0.1% NP40). Following to this, isoelectric focusing was performed (pH 3-10, Invitrogen) according to the manufacturer's protocol (1 hour 100 V, 1 hour 200 V, and 30 minutes 500 V). After semi-dry blotting on PVDF membranes (450 mA, 24V, 1 hour), patient's plasma was used for immunodetection of progranulin from whole blood cell lysates and murine anti-FLAG antibody (Sigma) was used at a dilution of 1:2,000 for immunodetection of progranulin from LCL lysates. These LCLs had been previously transfected with FLAG-tagged progranulin in pRTS. The membrane was blocked in TST/milk buffer (10% milk in 10 mM Tris/HCl, pH 7.5, 150 mM NaCl, 0.1% [v/v] Tween 20) overnight, washed, and incubated for 1 hour with plasma in TST or murine anti-FLAG-antibody. After 3 washings in TST, the membranes were incubated for 1 hour at room temperature with PDX-labeled goat anti-human IgG Ab (Dianova) diluted 1:5,000 or PDX-labeled anti-mouse IgG Ab (Biorad) in TST, subsequently washed in TST followed by ECL development. To perform IEF on different cell fractions, PBMCs and granulocytes were isolated by density double gradient centrifugation (Histopaque-1077 and -1119, Sigma). Monocytes, B-cells and T-cells were sorted with CD14, CD19 and CD3. Mucosa cells were obtained by swab from the oral cavities of patients and controls.
Stable transfected lymphoblastoid cell lines were cultured at 2×10e6 cells/ml in the presence of selected inhibitory compounds as indicated to narrow down the number of candidate kinases responsible for hyperphosphorylation at Ser81. […] After 3 days, cells were removed and analyzed by isoelectric focusing (IEF) and immunoblot detection. After the identification of PKC as the responsible kinase for the phosphorylation of serine 81, the same procedure was repeated with other selected inhibitory compounds to identify the subclass of PKC. The selected inhibitory compounds for the identification of the PKC subunit were: Staurosporin at […], 15 nM and 30 nM. Bisindolylmaleimide I (BIM I) at 1 nM, 5 nM, 10 nM and 20 nM, Rottlerin at 5 μM, 10 μM, 40 μM and 100 μM and the PKCβ-inhibitor at a concentration of 5 nm specifically for PKCβ-II and at a concentration of 21 nm for PKCβ-I and PKCβ-II.

**Q.** How did the “hyperphosphorylated progranulin isoform in IEF” value (inhibitor at 1 nM) turn out when `CN(C)CCCn1cc(C2=C(c3c[nH]c4ccccc34)C(=O)NC2=O)c2ccccc21` [Bisindolylmaleimide I] was run?
**A.** didn't inhibit the hyperphosphorylation

**Q.** And the “hyperphosphorylated progranulin isoform in IEF” value (inhibitor at 5 nM)?
**A.** didn't inhibit the hyperphosphorylation

**Q.** And the “hyperphosphorylated progranulin isoform in IEF” value (inhibitor at 10 nM)?
**A.** didn't inhibit the hyperphosphorylation

**Q.** What about the “hyperphosphorylated progranulin isoform in IEF” value (inhibitor at 20 nM) of the same molecule?
**A.** the hyper-phosphorylated isoform disappeared

**Q.** And the “hyperphosphorylated progranulin isoform in IEF” value (inhibitor at 20 nM, listed as Bis-indolyl-maleimide I)?
**A.** led to the disappearance of the hyperphosphorylated isoform

**Q.** What does the source list for `O=c1oc2c(O)c(O)cc3c(=O)oc4c(O)c(O)cc1c4c23` [Ellagic Acid]?
**A.** electrical charge of the normal progranulin isoform in IEF (10 pM, LCL of progranulin-antibody positive patients and of healthy controls): slight shift of the band of the normal progranulin isoform towards an electronically less negatively charged isoform; electrical charge of the normal progranulin isoform in IEF (50 μM, LCL of a healthy control): change in the electrical charge of “normal” progranulin appeared as well; electrical charge of the normal progranulin isoform in IEF (50 μM, LCL of a progranulin-antibody positive patient): change in the electrical charge; hyperphosphorylated progranulin isoform in IEF (inhibitor at 50 μM): disappearance of the hyperphosphorylated progranulin isoform

**Q.** `O=C1NC(=O)C(c2cn(CCCn3ccnc3)c3ccccc23)=C1Nc1ccccc1` [PKCβ-inhibitor] was tested. Which “hyperphosphorylated progranulin isoform in IEF” value (inhibitor at 21 nM) did it give?
**A.** led to the disappearance of the hyperphosphorylated isoform

**Q.** What does the source list for `CC(=O)c1c(O)c(C)c(O)c(Cc2c(O)c3c(c(C(=O)/C=C/c4ccccc4)c2O)OC(C)(C)C=C3)c1O` [Rottlerin]?
**A.** hyperphosphorylated progranulin isoform in IEF (inhibitor at 5 μM): could not inhibit the phosphorylation of Ser81; hyperphosphorylated progranulin isoform in IEF (inhibitor at 10 μM): could not inhibit the phosphorylation of Ser81; hyperphosphorylated progranulin isoform in IEF (inhibitor at 40 μM): could not inhibit the phosphorylation of Ser81; hyperphosphorylated progranulin isoform in IEF (inhibitor at 100 μM): could not inhibit the phosphorylation of Ser81; hyperphosphorylated progranulin isoform in IEF (inhibitor at different concentrations): not possible to inhibit the responsible kinase

**Q.** With `CN[C@@H]1C[C@H]2O[C@@](C)([C@@H]1OC)n1c3ccccc3c3c4c(c5c6ccccc6n2c5c31)C(=O)NC4` [Staurosporin] as the molecule, how does the “electrical charge of the normal progranulin isoform in IEF” value (from here on “electrical charge”) (2.5 pM, LCL of progranulin-antibody positive patients and of healthy controls) read?
**A.** slight shift of the band of the normal progranulin isoform towards an electronically less negatively charged isoform

**Q.** And the “electrical charge” value (5 pM, LCL of progranulin-antibody positive patients and of healthy controls)?
**A.** slight shift of the band of the normal progranulin isoform towards an electronically less negatively charged isoform

**Q.** What about the “electrical charge” value (2.5 μM, LCL of a healthy control) of the same molecule?
**A.** change in the electrical charge of “normal” progranulin appeared as well

**Q.** And the “electrical charge” value (2.5 μM, LCL of a progranulin-antibody positive patient)?
**A.** change in the electrical charge

**Q.** What about the “electrical charge” value (5 μM, LCL of a healthy control) of the same molecule?
**A.** change in the electrical charge of “normal” progranulin appeared as well

**Q.** And the “electrical charge” value (5 μM, LCL of a progranulin-antibody positive patient)?
**A.** change in the electrical charge

**Q.** What about the “hyperphosphorylated progranulin isoform in IEF” value (inhibitor at 10 nM) of the same molecule?
**A.** led only to the disappearance of the hyperphosphorylated progranulin isoform

**Q.** And the “hyperphosphorylated progranulin isoform in IEF” value (inhibitor at 15 nM)?
**A.** wasn't detectable

**Q.** What about the “hyperphosphorylated progranulin isoform in IEF” value (inhibitor at 30 nM) of the same molecule?
**A.** wasn't detectable; also recorded: led only to the disappearance of the hyperphosphorylated progranulin isoform

**Q.** What about the “hyperphosphorylated progranulin isoform in IEF” value (inhibitor at 2.5 μM) of the same molecule?
**A.** disappearance of the hyperphosphorylated progranulin isoform

**Q.** What about the “hyperphosphorylated progranulin isoform in IEF” value (inhibitor at 5 μM) of the same molecule?
**A.** disappearance of the hyperphosphorylated progranulin isoform
